Test results reported in paper PMC5442318, “Hundreds of dual-stage antimalarial molecules discovered by a functional gametocyte screen” (Nature Communications, 2017).
pIC50: −log10 of the molar value.

How the values were obtained:
HepG2 cells = assay: HepG2 cytotoxicity assay; type: cell-based; details: HepG2 cells; mean
Description: After incubation, plates and CellTiter-Glo Reagent (G7571, Promega) were equilibrated at room temperature for 30 min before proceeding to develop the luminescent signal. Using a Multidrop combi dispenser, 25 μl per well of the signal developer were added to the plates and after 10 min at room temperature for stabilization, plates were read on the ViewLux system (Perkin Elmer).

[1] = tested on: P. falciparum stages IV–V gametocytes; assay: Gametocytocidal ATP-depletion assay (gametocyte ATP bioluminescence); type: cell-based, Plasmodium falciparum
Description: In parallel, the set of confirmed hits from the Pf FGAA screen was cross-compared in the gametocyte ATP-depletion assay, at 2 μM single concentration (Supplementary Data 1). This assay monitors ATP levels as surrogate of gametocyte viability.
‘Viability' of mature gametocytes was determined using the gametocyte ATP bioluminiscence assay. Briefly, stages IV–V gametocyte cultures were double-purified by differential sedimentation followed by magnetic isolation. Then, parasites (50 μl per well containing 12,500 gametocytes) were added to compound pre-dispensed 384-well plates (781091, Greiner Bio-One) and incubated at 37 °C for 48 h (3% O2, 5% CO2 and 92% N2). BacTiter-Glo kit (G8231, Promega) was used to determine the ATP levels of ‘live' parasites according to the manufacturer's instructions. After reagent addition (50 μl per well), luminescence of the plates was measured using a microplate reader (HTS counter Victor, Wallac).

[2] = tested on: P. falciparum stage V female gametocytes; assay: P. falciparum female gametocyte activation assay (Pf FGAA), 24 h or 48 h preincubation, Pfs25 expression readout; type: cell-based, Plasmodium falciparum NF54; details: P. falciparum female gametocytes; mean; read-out: Gametocytes mean Pf FGAA IC50
Description: P. falciparum NF54 (originally isolated from an imported malaria case in the Netherlands in the 1980s; BEI Resources, cat. no. MRA-1000) asexual-stage culture was performed as described by Trager and Jensen[37]. Cultures synchronized at the ring stage were used to start gametocyte cultures (day 0) at 1% parasitaemia and 4% haematocrit in 200 ml final volume using culture bottles (Nalgene 3110-42, Thermo Scientific). Complete culture medium (RPMI 1640 supplemented with 25 mM HEPES, 50 μg ml^−1 hypoxanthine, 2 g l^−1 NaHCO3 and 10% pooled human male type A+ serum) was totally replaced daily for 14 days without fresh erythrocyte addition. Human serum was obtained from Interstate Blood Bank, A^+ serotype; no aspirin 2 h before drawing and no antimalarials 2 weeks before drawing. To ensure a stable temperature at 37 °C, which is crucial for gametocyte production and maturation, pre-warmed medium and a slide warmer (XH-2001, Premiere) were used. Under these conditions, parasitaemia reaches a peak of asexual stages on days 4–5, and the first gametocytes are differentiated in culture on day 6. Sexual-stage development was monitored microscopically by Giemsa-stained thin blood smears at day 7 (mainly asexual stages and stages I to III gametocytes) and day 14 (stages IV and V gametocytes).
Cultures showing mainly stage V gametocytes were purified by differential sedimentation as previously reported. The gametocyte concentration was adjusted to plate 8,000 gametocytes per well (100 μl per well) in 384-well poly-D-lysine coated plates (781946, Greiner Bio-One) containing the compounds to test. […] Female gametocyte activation was then triggered by temperature drop and addition of xanthurenic acid (D120804, Sigma) as previously described. To detect female gametes, monoclonal anti-Pfs25 antibody[38] 4B7 (BEI Resources (formerly MR4), cat. no. MRA-315) conjugated to the Cy3 fluorochrome (GE Healthcare) was added to ookinete medium (RPMI 1640 supplemented with 25 mM HEPES, 50 μg ml^−1 hypoxanthine, 2 g l^−1 NaHCO3, 100 μM xanthurenic acid and 20% human serum) at a final concentration of 0.5 μg ml^−1. Activated cultures were then kept at 26 °C for 24 h protected from light, and image acquisition was performed in the Opera High-Content Screening System (PerkinElmer). Using × 10 air objective, five images per well were taken using 532 nm excitation. Images were analysed with a Columbus image data storage and analysis system (PerkinElmer) based on a script specifically designed for this assay that considers size, roundness and intensity of fluorescence of the female activated gametocytes.
Compounds were dissolved in 100% DMSO and dispensed in the 384-well plates using an Echo-CRS liquid handler. Compounds were tested in 2–3 independent experiments. […] Based on that, Z′ factor was calculated for each plate and only those ones with values higher than 0.4 were considered acceptable for data analysis.
Assay performance statistics, such as signal to background ratio, Z′ and robust 3 s.d. activity cut-off were calculated using templates in ActivityBase XE (IDBS, Guilford, Surrey, UK). Hit population analysis and visualization were conducted using Spotfire DecisionSite (Spotfire, Inc., Somerville, MA, USA). The pIC50 (−log IC50) values were obtained using the ActivityBase XE nonlinear regression function in the full curve analysis bundle.

[3] = tested on: P. falciparum asexual blood stages; details: TCAMS asexual blood stage data; ref 1 (Gamo, F. J. et al., Nature 465, 305-310, 2010); read-out: Pf Asexual blood stages XC50; cited from earlier work

| pIC50 [2] | Compound | HepG2 cells mean TOX50 (HepG2 cells) | Gametocytes mean ATP inhibition at 2µM [1] | pIC50 [3] |
| --- | --- | --- | --- | --- |
| 5.62 | Br.Oc1ccc(CCNCCCCCCNCCc2ccc(Cl)c3ccccc23)cc1O [TCMDC-131271] | 11.22 µM | 14.57% | 6.14 |
| 5.02 | Br.CC(C)(Cc1ccc(Cl)cc1)NCCCCCCNCCc1ccc(O)c(O)c1 [TCMDC-131277] | 10.97 µM | 53.83% | 5.92 |
| 5.90 | CCC(CSC1CCCCC1)N(C)CCN(C)C(CC)CSC1CCCCC1.Cl (stereo not drawn) [TCMDC-131456] | 0.0654 µM | 36.19% | 6.51 |
| 5.86 | C[C@H](Cc1ccc(C[C@@H](C)NC[C@H](O)c2cccc(Cl)c2)cc1)NC[C@H](O)COc1ccccc1.Cl [TCMDC-131549] | 5.19 µM | 20.38% | 5.93 |
| 5.69 | C[C@H](Cc1ccc(CCc2ccc(C[C@@H](C)NC[C@H](O)c3cccc(Cl)c3)cc2)cc1)NC[C@H](O)c1cccc(Cl)c1.Cl [TCMDC-131551] | 4.27 µM | 51.33% | 6.03 |
| 6.02 | C[C@H](Cc1ccc(OCCCCCOc2ccc(C[C@@H](C)NC[C@H](O)c3cccc(Cl)c3)cc2)cc1)NC[C@H](O)c1cccc(Cl)c1.Cl [TCMDC-131563] | 2.11 µM | 21.40% | 6.72 |
| 5.10 | N=C(/N=C(/NCCCCCCN/C(=N\C(=N)Nc1ccc(Cl)cc1)N1CCCCC1)N1CCCCC1)Nc1ccc(Cl)cc1 [TCMDC-131811] | 44.23 µM | 49.82% | 6.59 |
| 5.32 | CCN(CC)/C(=N/C(=N)NCc1ccc(Cl)cc1Cl)NCCCCCCN/C(=N\C(=N)NCc1ccc(Cl)cc1Cl)N(CC)CC [TCMDC-131819] | 36.73 µM | 65.32% | 6.66 |
| 6.05 | COc1cc2nc(NCCCN3CCCCC3)nc(NCc3ccccc3)c2cc1OC [TCMDC-132012] | 6.84 µM | 19.39% | 6.00 |
| 5.91 | CCc1c(CCNCCCCCCNC(C)(C)Cc2ccc3c(c2CC)OCO3)ccc(OC)c1OC.Cl [TCMDC-132055] | 4.27 µM | 19.03% | 6.03 |
| 5.59 | CCc1c(CCNC/C=C/C=C/CNCCc2ccc(OC)c(OC)c2CC)ccc(OC)c1OC.Cl [TCMDC-132061] | 4.68 µM | 13.62% | 6.01 |
| 5.99 | CCc1c(CCNCCCCCCNCCc2ccc3c(c2C)OCO3)ccc2c1OCO2.Cl [TCMDC-132093] | 3.89 µM | 10.41% | 6.21 |
| 5.68 | CN(C)Cc1cccc2nc(-c3csc(Cc4cc(Cl)ccc4OCc4ccccc4)n3)[nH]c12 [TCMDC-132174] | 13.04 µM | 47.80% | 5.95 |

The remaining lines, values behind:

| Compound | pIC50 [2] | HepG2 cells mean TOX50 (HepG2 cells) | Gametocytes mean ATP inhibition at 2µM [1] | pIC50 [3] |
| --- | --- | --- | --- | --- |
| COc1ccc(CCNCCCCCCNCCc2ccc(Cl)c3ccccc23)cc1OC.Cl [TCMDC-131270] | 6.24 | 2.12 µM | 67.75% | 6.24 |
| COc1ccc(CCNCCCCCCNCCc2ccc(Cl)cc2)c(Cl)c1OC.Cl [TCMDC-131272] | 6.08 | 5.54 µM | 24.24% | 6.09 |
| Br.CCCCc1ccc(CCNCCCCCCNCCc2ccc(O)c(O)c2)cc1 [TCMDC-131281] | 5.67 | 4.63 µM | 60.07% | 5.97 |
| C[C@H](Cc1ccc(Oc2ccc(C[C@@H](C)NC[C@H](O)c3cccc(Cl)c3)cc2)cc1)NC[C@H](O)c1cccc(Cl)c1.Cl [TCMDC-131560] | 6.14 | 2.04 µM | 70.55% | 6.25 |
| N=C(/N=C(/NCCCCCCN/C(=N/C(=N)NCc1ccc(Cl)c(Cl)c1)N1CCCCC1)N1CCCCC1)NCc1ccc(Cl)c(Cl)c1 [TCMDC-131816] | 5.58 | 43.18 µM | 67.07% | 6.24 |
| CCCCN(CCCC)/C(=N/C(=N)NCc1ccc(Cl)c(Cl)c1)NCCCCCCN/C(=N\C(=N)NCc1ccc(Cl)c(Cl)c1)N(CCCC)CCCC [TCMDC-131821] | 5.60 | 13.96 µM | 63.54% | 6.40 |
| Br.CCc1c(CCNCCCCCCNCCc2ccc(Br)cc2)ccc(O)c1O [TCMDC-132044] | 5.89 | 7.96 µM | 6.14% | 6.05 |
| CCc1c(CCNCCCCCCNC(C)Cc2ccc3c(c2CC)OCO3)ccc(OC)c1OC.Cl (stereo not drawn) [TCMDC-132052] | 6.32 | 2.46 µM | 35.74% | 6.06 |
| Cc1c2ccncc2c(C)c2c1[nH]c1cc(Cc3ccccc3)c(O)cc12 [TCMDC-132053] | 5.96 | 1.23 µM | -3.89% | 6.82 |
| CCc1c(CCNCCCCCNCCc2ccc(OC)c(OC)c2CC)ccc(OC)c1OC.Cl [TCMDC-132064] | 5.69 | 4.68 µM | 27.40% | 5.95 |
| CCc1c(CCNCCCCCCNCCc2ccc([N+](=O)[O-])cc2)ccc(OC)c1OC.Cl [TCMDC-132066] | 5.84 | 4.57 µM | 24.70% | 6.14 |
| Nc1c(Cl)cc(C(O)CNCCCCCOCCCc2ccc(O)c3ncccc23)cc1Cl.O=C(O)/C=C/C(=O)O (stereo not drawn) [TCMDC-132088] | 5.68 | 7.76 µM | 76.89% | 6.00 |
| O=C(O)C(F)(F)F.O=S(=O)(NCCN1CCCC1)c1ccc(-c2cccc(CNC3Cc4ccccc4C3)c2)cc1 [TCMDC-132215] | 5.60 | 6.03 µM | 9.62% | 6.21 |
| O=C(O)C(F)(F)F.O=S(=O)(NCCN1CCCC1)c1ccc(-c2ccc(CNC3Cc4ccccc4C3)cc2)s1 [TCMDC-132234] | 5.64 | 5.83 µM | 1.19% | 6.23 |
